Data taken from patent US8106004B2, “Methods of inhibiting tumor cell aggressiveness using the microenvironment of human embryonic stem cells” (Children's Memorial Hospital, priority 2006, dated 2012).

Assays:
Format in all cases: cell-based, human
[1] = system: C8161 cells; experiment: MICS (Membrane Invasion Culture System) invasion assay; settings: C8161, ALK 4/5/7 inhibitor
Procedure: (A) Invasion of C8161 cells following culture on unconditioned Matrigel (Control) or Matrigel preconditioned by either H1 or HSF-6 hESCs was calculated as a percentage of cells able to invade through a defined matrix (collagen IV, laminin, and gelatin)-coated membrane during a 24 hour period using the MICS (Membrane Invasion Culture System) assay. Bars represent the mean, normalized, invasion indices±standard deviations. […] (B) In vivo tumor formation in a mouse injected with C8161 cells pre-exposed for 3 days to either a control matrix (Matrigel) or a matrix conditioned by hESCs (H9 CMTX) (n=21).
The aggressiveness of tumor cells is correlated with their ability to invade through the extracellular matrix; thus, the effect of hESC microenvironments on melanoma cell invasion was investigated.
The derivation and phenotypic characteristics of the human melanoma cell lines have been previously described. Seftor, et. al., 2002, Clin. Experim. Metastas. 19:233-246; Seftor, et. al., 2005 Cancer Res. 65:10164-10169. […] The cultures are determined to be free of mycoplasma contamination using a PCR-based assay (Roche). […]

[2] = system: Nodal; experiment: Nodal expression in C8161 cells (Western blot, real time RT-PCR); settings: C8161, ALK 4/5/7 inhibitor 1 μM, 10 μM
Procedure: A determination of the effects of H9 CMTX on Nodal expression in metastatic melanoma (C8161) and breast carcinoma (MDA-MB-231) cells was undertaken. […] Exposure to H9 CMTX similarly abrogates Nodal mRNA expression in the melanoma and breast carcinoma cells (FIG. 9C).
Protein lysates were prepared and quantified as previously described in Hess et al., 2001, Cancer Res. 61:3250-3255. Equal amounts of protein were separated by SDS-polyacrylamide gel electrophoresis under reducing conditions, and the resolved proteins were transferred onto Immobilon-P membranes (Millipore Corp., Bedford, Mass.). Membranes were blocked in 1% TBS, 0.1% Tween 20 (TBS-T) and 5% dry milk powder or 3% gelatin (for Nodal Westerns). Blots were incubated with anti-Nodal or anti-Lefty antibodies (Polyclonal rabbit anti-Nodal (H-110) 1:500 Santa Cruz Biotechnology, Santa Cruz, Calif.; Polyclonal goat anti-Lefty 1:500 R&D Systems, Minneapolis, Minn.), washed in TBS-T, and incubated with the appropriate horseradish peroxidase-labeled secondary antibody. Secondary antibodies were detected by enhanced chemiluminescence (Super Signal; Pierce, Rockford, Ill.) and exposure to autoradiography film (Molecular Technologies, St Louis, Mo.). Nodal protein was detected as two major bands at ˜48 and ˜35 kDa representing precursor and pro-Nodal respectively. Nodal often appeared as multiple bands, likely due to degradation of protein modifications. All experiments were done at least three times.
The derivation and phenotypic characteristics of the human melanoma cell lines have been previously described. Seftor, et. al., 2002, Clin. Experim. Metastas. 19:233-246; Seftor, et. al., 2005 Cancer Res. 65:10164-10169. The melanoma cell lines are maintained in RPMI 1640 medium (Invitrogen) supplemented with 10% fetal bovine serum (FBS, Gemini Bioproducts) and 0.1% gentamycin sulfate with the exception of C81-61 cells which are maintained in Ham's FIO medium supplemented with 15% FBS, 1X Mito+ (BD Bioscience) and gentamycin sulfate. […] The cultures are determined to be free of mycoplasma contamination using a PCR-based assay (Roche). […]

[3] = system: C8161 cells; experiment: Vasculogenic mimicry and plasticity biomarkers in C8161 cells with ALK 4/5/7 inhibitor; settings: C8161, ALK 4/5/7 inhibitor
Procedure: (A) Western blot analyses of Nodal, phosphorylated SMAD-2, total SMAD 2/3, and Actin in C8161 cells 48 hours after administration of either vehicle or an ALK 4/5/7 inhibitor (SB431542, 1 μM, 10 μM). […] (B) Western blot analyses of Nodal, Tyrosinase and Actin in C8161 cells 24 hours after the administration of either vehicle or different concentrations of ALK inhibitor while (C) is a Western analyses for VE-Cadherin, Keratin 18 and Actin in C8161 cells cultured on 3-D collagen I matrices for 6 days in the presence of vehicle or different concentrations of ALK inhibitor.

[4] = system: Notch; experiment: Western blot analysis of Notch 1, 2 and 4 in C8161 cells; settings: C8161 treated with Nodal inhibitor
Description: Western blot analysis of C8161 cells 72 hrs following the administration of siRNA. […] Western blot analysis of Notch 1, 2 and 4 in C8161 cells treated with the Nodal inhibitor SB431542.

In the case of `NC(=O)c1ccc(-c2nc(-c3ccc4c(c3)OCO4)c(-c3ccccn3)[nH]2)cc1` [SB431542], the invasive ability [1] is reported as “reduction in invasive ability”, the “Nodal expression (Western blot)” value [2] is reported as “down-regulation of Nodal” and the “expression of vasculogenic mimicry plasticity biomarkers (Western blot)” value [3] is reported as “reduction”. For the same compound, the vasculogenic mimicry [3] was “abrogation of vasculogenic mimicry” and the “Notch expression (Western blot)” value [4] was “relatively unaffected”.
